From patent publication US9307763B2, “Ligands for odor receptors and olfactory neurons” (The Regents of the University of California, priority 2010, dated 2016)

Tests used:
Or82a = molecular target: T1, Or82a (Drosophila melanogaster, UniProt P82986); settings: single strong ligand of the training set; cited from earlier work
T1 sequence (P82986 1-385): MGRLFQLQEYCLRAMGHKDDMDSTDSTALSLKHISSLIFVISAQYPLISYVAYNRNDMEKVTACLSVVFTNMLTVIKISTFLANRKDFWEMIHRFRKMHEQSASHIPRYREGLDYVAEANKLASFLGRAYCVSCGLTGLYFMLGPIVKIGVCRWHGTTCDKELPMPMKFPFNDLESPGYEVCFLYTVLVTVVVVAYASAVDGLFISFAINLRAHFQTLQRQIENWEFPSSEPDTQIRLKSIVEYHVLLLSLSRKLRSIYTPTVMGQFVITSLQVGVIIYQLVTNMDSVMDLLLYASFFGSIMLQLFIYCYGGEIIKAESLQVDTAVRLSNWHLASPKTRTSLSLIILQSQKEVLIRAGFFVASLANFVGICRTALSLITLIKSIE
T1 sequence (Q9VNB5 1-486 partner): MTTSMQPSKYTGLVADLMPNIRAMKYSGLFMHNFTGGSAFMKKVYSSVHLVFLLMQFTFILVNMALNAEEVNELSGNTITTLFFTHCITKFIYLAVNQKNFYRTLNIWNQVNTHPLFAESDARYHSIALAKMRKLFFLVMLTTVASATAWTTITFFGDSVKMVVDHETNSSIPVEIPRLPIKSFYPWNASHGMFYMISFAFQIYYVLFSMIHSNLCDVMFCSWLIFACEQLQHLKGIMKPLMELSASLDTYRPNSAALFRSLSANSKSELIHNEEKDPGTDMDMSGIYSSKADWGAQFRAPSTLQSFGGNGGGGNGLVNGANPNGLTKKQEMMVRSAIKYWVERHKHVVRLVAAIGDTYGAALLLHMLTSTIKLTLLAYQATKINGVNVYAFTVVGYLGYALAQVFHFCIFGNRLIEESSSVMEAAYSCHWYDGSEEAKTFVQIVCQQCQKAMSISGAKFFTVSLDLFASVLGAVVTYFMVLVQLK

CO2 responsive neurons = settings: […]; averaged across the top 2 responders of the 4 species; cited from earlier work
Or98a, ab7A = molecular target: T2, Or98a, ab7A (Drosophila melanogaster, UniProt Q9VAZ3); test: single-sensillum electrophysiology; type: in vivo; settings: odorant at 10^-2
T2 construct: The 9 Ors tested are expressed in well-defined olfactory receptor neurons (ORNs) housed within the large and small basiconic sensilla; from tissue; host or cells: D. melanogaster antenna, ab7A olfactory receptor neuron (in vivo recording)
T2 sequence (Q9VAZ3 1-397): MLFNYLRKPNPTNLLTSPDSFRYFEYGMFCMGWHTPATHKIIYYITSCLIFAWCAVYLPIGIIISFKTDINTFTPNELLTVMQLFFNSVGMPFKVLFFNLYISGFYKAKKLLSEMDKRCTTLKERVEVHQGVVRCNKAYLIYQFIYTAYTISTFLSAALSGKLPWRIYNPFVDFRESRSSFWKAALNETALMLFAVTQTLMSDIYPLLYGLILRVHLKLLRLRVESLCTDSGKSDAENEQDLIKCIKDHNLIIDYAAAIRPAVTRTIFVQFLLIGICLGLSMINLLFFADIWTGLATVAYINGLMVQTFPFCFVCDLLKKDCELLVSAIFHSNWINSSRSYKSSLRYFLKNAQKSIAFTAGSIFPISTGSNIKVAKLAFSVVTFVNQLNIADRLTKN
T2 sequence (Q9VNB5 1-486 partner): T1 sequence (Q9VNB5 1-486 partner)
Procedure: The results of the in silico screen are provocative. However in order to verify whether these predictions were meaningful, functional evidence was obtained. In order to validate the success of the in silico predictions the responses of 9 Odor receptors using single-sensillum electrophysiology directly on the Drosophila melanogaster antenna were analyzed. For each Odor receptor several odorants were tested from the top 500 predicted hits. A sampling of ˜192 novel odorants were tested with ˜11-21 novel odorants tested for each receptor, which were scattered somewhat randomly within the top 500 predictions for each receptor, providing a relatively unbiased set of chemical structures.
To test identified compounds any number of biological assays can be used to measure ORN activity in the presence of a putative ligand/compounds. […] For the purpose of testing each of these volatile compounds the compounds were diluted to ˜10^−2 in paraffin oil or distilled water. The 9 Ors tested are expressed in well-defined olfactory receptor neurons (ORNs) housed within the large and small basiconic sensilla (ab1-ab7) on the antenna. A previously identified diagnostic panel of odorants was used to distinguish individual classes of sensilla (ab1-ab7) and therefore identified the sensilla that contained the target Or expressing ORN. […]

SMILES | activation of Or82a (Or82a) | Final Activity (CO2 responsive neurons) | activation of odor receptor (firing rate) (Or98a, ab7A)
CC(=O)OC/C=C(\C)CCC=C(C)C [geranyl acetate, reference compound] | activated strongly | 0 | –
CC(=O)OCC=C(C)C [prenyl acetate] | – | – | > 250 spikes/sec
